The source of these data is US9365522B2, “Pyrazole amide derivative” (AMGEN INC., priority 2015, dated 2016).

In this experiment the target is T1, human RORγ-LBD (Homo sapiens, UniProt P51449).
T1 construct: made in house; host or cells: E. coli (BL-21)
T1 sequence (P51449 262-518): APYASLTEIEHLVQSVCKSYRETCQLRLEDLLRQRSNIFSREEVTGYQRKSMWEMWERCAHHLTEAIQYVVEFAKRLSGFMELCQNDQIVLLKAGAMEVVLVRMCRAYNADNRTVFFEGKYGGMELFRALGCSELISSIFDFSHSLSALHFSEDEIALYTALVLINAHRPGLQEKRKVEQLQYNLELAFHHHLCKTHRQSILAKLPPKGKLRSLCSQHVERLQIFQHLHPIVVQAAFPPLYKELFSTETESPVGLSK
Put plainly: ROR gamma coactivator peptide recruitment Alphascreen assay (RORγ-LBD binding to GRIP1 coactivator peptide). The class given is biochemical. The following applies: 5 nM human RORγ-LBD, 30 nM 7-β-hydroxycholesterol, 50 nM biotinylated GRIP1 coactivator peptide, overnight incubation at room temperature; read-out: result (pIC50, RORγ coactivator peptide recruitment Alphascreen assay) (converted). In outline:
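Alphascreen proximity read-out after overnight room-temperature incubation, yielding pIC50 from 1-in-2 compound series (2.5% DMSO final). Mixture: 50 nM biotin-GRIP1 peptide, 30 nM 7-β-hydroxycholesterol agonist, 5 nM recombinant 6×His:Flag human RORγ-LBD (aa 262-518), 50 mM HEPES pH 7.4.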
Background: Alpha assays give light when donor and acceptor beads are brought close together.
`C[C@@]1(CN(CC(=O)c2c(Cl)cccc2Cl)C(=O)c2cnn([C@H]3CC[C@](C)(C(=O)O)CC3)c2C(F)(F)F)CCCO1` [Example 727, trans-4-(4-((2-(2,6-dichlorophenyl)-2-oxoethyl)(((2S)-2-methyltetrahydro-2-furanyl)methyl)carbamoyl)-5-(trifluoromethyl)-1H-pyrazol-1-yl)-1-methylcyclohexanecarboxylic acid]: the IC50 is 11.7 nM. The figure for `C[C@]1(CN(CC(=O)c2c(Cl)cccc2Cl)C(=O)c2cnn([C@H]3CC[C@](C)(C(=O)O)CC3)c2C(F)(F)F)CCCO1` [Example 728, trans-4-(4-((2-(2,6-dichlorophenyl)-2-oxoethyl)(((2R)-2-methyltetrahydro-2-furanyl)methyl)carbamoyl)-5-(trifluoromethyl)-1H-pyrazol-1-yl)-1-methylcyclohexanecarboxylic acid] is 4.79 nM; for `C[C@]1(C(=O)O)CC[C@H](n2ncc(C(=O)N(CC(=O)c3c(Cl)cccc3Cl)CC3(C(F)(F)F)CC3)c2C(F)(F)F)CC1` [Example 729, (1r,4r)-4-(4-((2-(2,6-dichlorophenyl)-2-oxoethyl)((1-(trifluoromethyl)cyclopropyl)methyl)carbamoyl)-5-(trifluoromethyl)-1H-pyrazol-1-yl)-1-methylcyclohexanecarboxylic acid] it is 2.4 nM. The result for `CC1(CN(CC(=O)c2c(Cl)cncc2Cl)C(=O)c2cnn([C@H]3CC[C@](C)(C(=O)O)CC3)c2C(F)(F)F)CCC1` [Example 730, trans-4-(4-((2-(3,5-dichloro-4-pyridinyl)-2-oxoethyl)((1-methylcyclobutyl)methyl)carbamoyl)-5-(trifluoromethyl)-1H-pyrazol-1-yl)-1-methylcyclohexanecarboxylic acid] reads 3.55 nM; that for `Cc1cc(Cl)c(C(=O)CN(CC2(C)CCC2)C(=O)c2cnn([C@H]3CC[C@](C)(C(=O)O)CC3)c2C(F)(F)F)c(Cl)c1` [Example 731, trans-4-(4-((2-(2,6-dichloro-4-methylphenyl)-2-oxoethyl)((1-methylcyclobutyl)methyl)carbamoyl)-5-(trifluoromethyl)-1H-pyrazol-1-yl)-1-methylcyclohexanecarboxylic acid], 0.933 nM; that for `Cc1cc(Cl)c(C(=O)CN(C(=O)c2cnn([C@H]3CC[C@](C)(C(=O)O)CC3)c2C(F)(F)F)C2CCC(C)(C)CC2)c(Cl)n1` [Example 732, trans-4-(4-((2-(2,4-dichloro-6-methyl-3-pyridinyl)-2-oxoethyl)(4,4-dimethylcyclohexyl)carbamoyl)-5-(trifluoromethyl)-1H-pyrazol-1-yl)-1-methylcyclohexanecarboxylic acid], 9.12 nM. The figure for `Cc1cc(Cl)c(C(=O)CN(CC2CCC2)C(=O)c2cnn([C@H]3CC[C@](C)(C(=O)O)CC3)c2C(F)(F)F)c(Cl)c1` [Example 733, trans-4-(4-((cyclobutylmethyl)(2-(2,6-dichloro-4-methylphenyl)-2-oxoethyl)carbamoyl)-5-(trifluoromethyl)-1H-pyrazol-1-yl)-1-methylcyclohexanecarboxylic acid] is 2.51 nM. Turning to `C[C@]1(C(=O)O)CC[C@H](n2ncc(C(=O)N(CC(=O)c3c(Cl)cncc3Cl)CC3CCC3)c2C(F)(F)F)CC1` [Example 734, trans-4-(4-((cyclobutylmethyl)(2-(3,5-dichloro-4-pyridinyl)-2-oxoethyl)carbamoyl)-5-(trifluoromethyl)-1H-pyrazol-1-yl)-1-methylcyclohexanecarboxylic acid], the IC50 was 10 nM. Turning to `C[C@]1(C(=O)O)CC[C@H](n2ncc(C(=O)N(CC(=O)c3c(Cl)cncc3Cl)CC3CCCCC3)c2C(F)(F)F)CC1` [Example 735], the IC50 is 2.75 nM. As for `C[C@H]1C[C@H](n2ncc(C(=O)N(CC(=O)c3c(Cl)cncc3Cl)CC(C)(C)C)c2C(F)(F)F)CC[C@H]1C(=O)O` [Example 738], the IC50 was 13.5 nM. The figure for `C[C@@H]1C[C@@H](n2ncc(C(=O)N(CC(=O)c3c(Cl)cncc3Cl)CC(C)(C)C)c2C(F)(F)F)CC[C@@H]1C(=O)O` [Example 739] is 5.75 nM; for `Cc1cc(Cl)c(C(=O)CN(CC(C)(C)C)C(=O)c2cnn([C@H]3CC[C@H](CC(=O)O)CC3)c2C(F)(F)F)c(Cl)n1` [Example 740, (trans-4-(4-((2-(2,4-dichloro-6-methyl-3-pyridinyl)-2-oxoethyl)(2,2-dimethylpropyl)carbamoyl)-5-(trifluoromethyl)-1H-pyrazol-1-yl)cyclohexyl)acetic acid] it is 14.5 nM; for `CCC1(CN(CC(=O)c2c(Cl)cncc2Cl)C(=O)c2cnn([C@H]3CC[C@](C)(C(=O)O)CC3)c2C(F)(F)F)CCC1` [Example 742, trans-4-(4-((2-(3,5-dichloro-4-pyridinyl)-2-oxoethyl)((1-ethylcyclobutyl)methyl)carbamoyl)-5-(trifluoromethyl)-1H-pyrazol-1-yl)-1-methylcyclohexanecarboxylic acid] it is 2.63 nM. The result for `CC1(C)C[C@H]1CN(CC(=O)c1c(Cl)cncc1Cl)C(=O)c1cnn([C@H]2CC[C@](C)(C(=O)O)CC2)c1C(F)(F)F` [Example 743, trans-4-(4-((2-(3,5-dichloro-4-pyridinyl)-2-oxoethyl)(((1S)-2,2-dimethylcyclopropyl)methyl)carbamoyl)-5-(trifluoromethyl)-1H-pyrazol-1-yl)-1-methylcyclohexanecarboxylic acid] reads 2.24 nM; that for `CCC1(CN(CC(=O)c2c(Cl)cc(C)cc2Cl)C(=O)c2cnn([C@H]3CC[C@](C)(C(=O)O)CC3)c2C(F)(F)F)CCC1` [Example 744, trans-4-(4-((2-(2,6-dichloro-4-methylphenyl)-2-oxoethyl)((1-ethylcyclobutyl)methyl)carbamoyl)-5-(trifluoromethyl)-1H-pyrazol-1-yl)-1-methylcyclohexanecarboxylic acid], 0.589 nM. Take `Cc1cc(Cl)c(C(=O)CN(C[C@@H]2CC2(C)C)C(=O)c2cnn([C@H]3CC[C@](C)(C(=O)O)CC3)c2C(F)(F)F)c(Cl)c1` [Example 745, trans-4-(4-((2-(2,6-dichloro-4-methylphenyl)-2-oxoethyl)(((1R)-2,2-dimethylcyclopropyl)methyl)carbamoyl)-5-(trifluoromethyl)-1H-pyrazol-1-yl)-1-methylcyclohexanecarboxylic acid]: the IC50 was 1 nM. Take `CC(C)[C@@H]1C[C@H](Cc2c(Cl)cncc2Cl)N(C(=O)c2cnn([C@H]3CC[C@](C)(C(=O)O)CC3)c2C(F)(F)F)C1` [Example 746, trans-4-(4-(((2R,4S)-2-((3,5-dichloro-4-pyridinyl)methyl)-4-(2-propanyl)-1-pyrrolidinyl)carbonyl)-5-(trifluoromethyl)-1H-pyrazol-1-yl)-1-methylcyclohexanecarboxylic acid]: the IC50 was 32.4 nM. The figure for `CC(C)[C@H]1C[C@H](Cc2c(Cl)cncc2Cl)N(C(=O)c2cnn([C@H]3CC[C@](C)(C(=O)O)CC3)c2C(F)(F)F)C1` [Example 747, trans-4-(4-(((2R,4R)-2-((3,5-dichloro-4-pyridinyl)methyl)-4-(2-propanyl)-1-pyrrolidinyl)carbonyl)-5-(trifluoromethyl)-1H-pyrazol-1-yl)-1-methylcyclohexanecarboxylic acid] is 3.98 nM.

Take `C[C@]1(C(=O)O)CC[C@H](n2ncc(C(=O)N(CC(=O)c3c(Cl)cncc3Cl)[C@H]3CCC34CCC4)c2C(F)(F)F)CC1` [Example 748, trans-4-(4-((2-(3,5-dichloro-4-pyridinyl)-2-oxoethyl)((1S)-spiro[3.3]hept-1-yl)carbamoyl)-5-(trifluoromethyl)-1H-pyrazol-1-yl)-1-methylcyclohexanecarboxylic acid]: the IC50 is 3.39 nM. The result for `C[C@]1(C(=O)O)CC[C@H](n2ncc(C(=O)N(CC(=O)c3c(Cl)cncc3Cl)[C@@H]3CCC34CCC4)c2C(F)(F)F)CC1` [Example 749, trans-4-(4-((2-(3,5-dichloro-4-pyridinyl)-2-oxoethyl)((1R)-spiro[3.3]hept-1-yl)carbamoyl)-5-(trifluoromethyl)-1H-pyrazol-1-yl)-1-methylcyclohexanecarboxylic acid] reads 60.3 nM.

Consider `Cc1cc(Cl)c(C(=O)CN(C(=O)c2cnn([C@H]3CC[C@H](CC(=O)O)CC3)c2C(F)(F)F)[C@H]2C[C@@H]3[C@H](C2)C3(C)C)c(Cl)c1` [Example 750, (trans-4-(4-((2-(2,6-dichloro-4-methylphenyl)-2-oxoethyl)((1R,3r,5S)-6,6-dimethylbicyclo[3.1.0]hex-3-yl)carbamoyl)-5-(trifluoromethyl)-1H-pyrazol-1-yl)cyclohexyl)acetic acid], for which the IC50 was 1.58 nM. The figure for `Cc1cc(Cl)c(C(=O)CN(CC2(F)CCCC2)C(=O)c2cnn([C@H]3CC[C@](C)(C(=O)O)CC3)c2C(F)(F)F)c(Cl)n1` [Example 751, trans-4-(4-((2-(2,4-dichloro-6-methyl-3-pyridinyl)-2-oxoethyl)((1-fluorocyclopentyl)methyl)carbamoyl)-5-(trifluoromethyl)-1H-pyrazol-1-yl)-1-methylcyclohexanecarboxylic acid] is 9.33 nM. The result for `CC(C)CCN(CC(=O)c1c(Cl)cccc1Cl)C(=O)c1cnn([C@H]2CC[C@](C)(C(=O)O)CC2)c1C(F)(F)F` [Example 752, trans-4-(4-((2-(2,6-dichlorophenyl)-2-oxoethyl)(3-methylbutyl)carbamoyl)-5-(trifluoromethyl)-1H-pyrazol-1-yl)-1-methylcyclohexanecarboxylic acid] reads 4.79 nM.
